Experimental data published in ChEMBL document CHEMBL1131982, “N-[2-(1-cyclohexenyl)ethyl]-N'-[2-(5-bromopyridyl)]-thiourea and N'-[2-(1-cyclohexenyl)ethyl]-N'-[2-(5-chloropyridyl)]-thiourea as potent inhibitors of multidrug-resistant human immunodeficiency virus-1” (Bioorg Med Chem Lett, 1999).

How the values were obtained:
[1] = target: Human immunodeficiency virus type 1 reverse transcriptase (Human immunodeficiency virus 1, UniProt Q72547); assay: Inhibitory activity against recombinant HIV-1 reverse transcriptase (rRT)
[2] = Anti-HIV activity by its ability to inhibit the replication of HIV-1 strain A17 (Y181C) in peripheral blood mononuclear cells (PBMC); assay type: functional; conditions: Homo sapiens
[3] = Anti-HIV activity by its ability to inhibit the replication of HIV-1 strain A17 variant (Y181C,K103N) in peripheral blood mononuclear cells (PBMC); assay type: functional, Homo sapiens
[4] = Anti-HIV activity by its ability to inhibit the replication of HIV-1 strain HTLV IIIB in peripheral blood mononuclear cells (PBMC); assay type: functional; conditions: Homo sapiens
[5] = Anti-HIV activity by its ability to inhibit the replication of HIV-1 strain RT-MDR(V106A) in peripheral blood mononuclear cells (PBMC); assay type: functional; conditions: Homo sapiens
[6] = Compound was evaluated for the cytotoxic activity by using Microculture Tetrazolium assay (MTA); assay type: functional

| Structure (SMILES) | IC50 [1] | IC50 [2] | IC50 [3] | IC50 [4] | IC50 [5] | CC50 [6] |
| --- | --- | --- | --- | --- | --- | --- |
| CC1(C)C2CC(C/N=C(\S)Nc3ccc(Br)cn3)CC1C2 (stereo not given) | > 100000 nM | – | – | – | – | – |
| S=C(NCCC1=CCCCC1)Nc1ccc(Cl)cn1 | 500 nM | 68 nM | 30000 nM | 3 nM | 1 nM | > 100000 nM |
| FC(F)(F)c1ccc(/N=C(\S)NCCC2=CCCCC2)nc1 | 4000 nM | 300 nM | > 100000 nM | 79 nM | 38 nM | > 100000 nM |
| S=C(NCC12CC3CC(CC(C3)C1)C2)Nc1ccc(Br)cn1 | > 100000 nM | – | – | – | – | – |
| S=C(NCCC1=CCCCC1)Nc1ccc(Br)cn1 | 400 nM | – | 18700 nM | 3 nM | 1 nM | > 100000 nM |
| CC(C)Nc1cccnc1N1CCN(C(=O)c2cc3cc(NS(C)(=O)=O)ccc3[nH]2)CC1 [DELAVIRDINE] | – | 50000 nM | > 100000 nM | 9 nM | 400 nM | 3600 nM |
| CCOCn1c(Cc2ccccc2)c(C(C)C)c(=O)[nH]c1=O [EMIVIRINE] | – | – | – | – | 300 nM | > 100000 nM |
| Cc1ccnc2c1NC(=O)c1cccnc1N2C1CC1 [NEVIRAPINE] | – | > 100000 nM | > 100000 nM | 34 nM | 5000 nM | 10500 nM |
| S=C(NCCc1ccccn1)Nc1ccc(Br)cn1 [TROVIRDINE] | – | 500 nM | > 100000 nM | 7 nM | 20 nM | > 100000 nM |
| Cc1cn([C@H]2C[C@H](N=[N+]=[N-])[C@@H](CO)O2)c(=O)[nH]c1=O [ZIDOVUDINE] | – | 6 nM | 4 nM | – | 200 nM | > 100000 nM |
